Assay results from PMC5815658 (Journal of Medicinal Chemistry, 2017).
≈ marks a conversion by molar mass, not a printed value.

Legend:
[1] = molecular target: T1, pirin protein in SK-OV-3 human ovarian cancer cells (Homo sapiens, UniProt O00625); test: Pirin depletion in SK-OV-3 cells (immunoblot / capillary electrophoresis immunoassay); type: cell-based; conditions: SK-OV-3 cells
T1 construct: endogenous in cells; host or cells: SK-OV-3
T1 sequence (O00625 1-290): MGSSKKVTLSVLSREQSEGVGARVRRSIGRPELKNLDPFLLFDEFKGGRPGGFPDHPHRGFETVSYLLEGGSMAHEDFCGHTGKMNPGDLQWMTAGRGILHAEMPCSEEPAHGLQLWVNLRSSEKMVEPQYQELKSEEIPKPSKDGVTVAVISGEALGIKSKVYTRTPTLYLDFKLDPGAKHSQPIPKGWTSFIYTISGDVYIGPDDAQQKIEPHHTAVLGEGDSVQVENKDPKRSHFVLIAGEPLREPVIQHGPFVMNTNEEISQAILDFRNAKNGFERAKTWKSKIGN
Experimental: in vivo in athymic mice to increase its tumorigenicity and reliability as a xenograft, and used within 10 passages of banked stocks.
Prior to use, the cells were analyzed by short tandem repeat (STR) profiling. Polymorphic STR loci were amplified using a polymerase chain reaction (PCR) primer set. The PCR product (each locus being labelled with a different fluorophore) was analyzed simultaneously with size standards using automated fluorescent detection. The number of repeats at 10 different loci (as recommended by the American Type Culture Collection, ATCC) was used to define the STR profile and this was cross-referenced with online databases to confirm authenticity. […]
the ATCC reference line (LGC Promochem, UK). […]
nested PCR protocol (Venor GeM kit, Minerva Biolabs, Germany). Cells were grown in DMEM/10 % FCS, 2 mM glutamine and nonessential amino acids in 5 % CO2.
SK-OV-3 cells were treated as for each experimental condition. Cells were harvested and lysed by scraping in urea lysis buffer (20 mM HEPES pH 8.0, 9 M urea, 1 mM sodium orthovanadate, 2.5 mM sodium pyrophosphate, 1 mM β-glycerophosphate). […]
of samples was determined using a bicinchoninic acid (BCA) protein assay kit (Thermo Fisher Scientific). Western blotting was carried out as previously described.10 Pirin and GAPDH antibodies were obtained from Abcam (ab157212) and Merck […]
Samples were treated, harvested and lysed as described above. A total of 5 μL of 0.2 mg/mL protein was loaded into plates and capillary western analysis was carried out according to the manufacturer’s instructions (ProteinSimple WES). The data was analyzed with the Compass software (ProteinSimple).
Sigma-Aldrich and Cell Signaling Technology, respectively.
10 Sharp SY, Boxall K, Rowlands M, Prodromou C, Roe SM, Maloney A, Powers M, Clarke PA, Box G, Sanderson S, Patterson L, Matthews TP, Cheung KM, Ball K, Hayes A, Raynaud F, Marais R, Pearl L, Eccles S, Aherne W, McDonald E, Workman P. In vitro biological characterization of a novel, synthetic diaryl pyrazole resorcinol class of heat shock protein 90 inhibitors.

[2] = PDP aqueous stability protocol; conditions: 37 °C
Experimental: PDP Aqueous Stability Protocol.
1) Using 1000 µL pipette, dispense 990 µL of pH 7.4 PBS buffer into a 1.5 mL micro centrifuge tube. Using 10 µL pipette,
add 10 µL of a freshly prepared 10 mM compound DMSO stock solution into the PBS buffer.
2) Mix for 5 seconds on vortex mixer to create 100 µM stock solution.
3) Agitate 100 µM stock solution (500 rpm, Bohdan Shaker) for 120 minutes at room temperature and the centrifuge for 15
4) Using a 1000 µL pipette approx. 700 µL was carefully decanted from the micro centrifuge tube and put into a vial to
5) To produce a t = 0 sample; using a 200 µL pipette, 50 µL of DMSO was dispensed into insert vial. Then, using a 200 µL
pipette, 200 µL from solution A was added into the insert vial and vortexed for 5 seconds to produce a sample for HPLC
6) The vial containing solution A was then warmed to 37 °C, with stirring, and aliquots were taken at regular time intervals
using the same procedure as described in step 5.
Assuming first-order decay:

[3] = LogD7.4 determination by RP-HPLC; conditions: pH 7.4
Experimental: Kinetic Solubility Determination
(§1) Kinetic Solubility values were determined via an in-house RP-HPLC method. Calibration standards were prepared at a
(§2) concentration of 100 M in 100 % DMSO. Calibration was achieved by injecting 0.5, 2.5 and 5 L of the 100 M standard.
The supernatant was removed and a small
(§3) volume of DMSO was added to ensure the compound remained in solution. Kinetic solubility values were determined by
(§4) substituting the AUC (Area Under the Curve) of the kinetic solubility samples into the equation obtained from the linear part of
(§5) Injections (with needle wash) of the calibration and kinetic solubility samples were made onto a Phenomenex Kinetex C18
(§6) column (5 µm, 50 mm x 4.6 mm, 100A, Phenomenex, Torrence, USA). Chromatographic separation at 30 °C was carried out
(§7) modified with 0.1 % formic acid) at a flow rate of 1.5 mL/min.
(§8) array detector (Agilent, Santa Clara, USA). Raw data was processed using Agilent Chemstation Rev.C.01.05.8. The data was then […]
(§9) LogD7.4 values were determined via an in-house RP-HPLC method based on previous work by Kerns and Di.4 Calibration was […]
(§10) by comparing HPLC-determined Log D7.4 values of two other commercially-available drugs with literature Log D7.4 values. […]
(§11) HPLC Log D7.4 values of in-house compounds were determined by substituting the compounds’ retention times into the equation […]

pirin [4] = molecular target: T2, pirin (Homo sapiens, UniProt O00625); test: TMT MS2 whole proteome mass spectrometry in SK-OV-3 cells; type: cell-based; design: endogenous in cells; host or cells: SK-OV-3; conditions: 50 nM, 4 h
T2 sequence (O00625 1-290): T1 sequence (O00625 1-290)
Experimental: PDP 16 Quantified Mass Spectrometry in SK-OV-3 Cells
SK-OV-3 cells (enough to yield 50μg total protein per sample) treated with DMSO control or 50nM PDP 16 for 4 h. Cells were then harvested and lysed by scraping in urea lysis buffer (20mM HEPES pH 8.0, 9M urea, 1mM sodium orthovanadate, 2.5mM sodium pyrophosphate, 1mM β-glycerophosphate). Samples were sonicated and cent rifuged at 20,000 x g for 15 min and the protein extract (supernatant) collected . The experiment was performed in triplicates. The protein extract samples (supernatant) were then sent to www.proteomics.com, (Accessed September 7, 2017) for analysis.
Proteome Sciences’ proprietary TMT®MS2 workflow was applied for the analysis of total proteomic protein expression. In addition, Proteome Sciences’ bioinformatics tools were applied for data normalization, data integration and statistical analysis .
We identified 107318 unique peptides and 8 785 unique protein groups. This coverage of the proteome is within our normal range for peptide and protein identifications in cell line samples. […]
component analysis (PCA) plots explaining ~64% o f the variance of statistically significant features at peptide level. This observation was consistent with the result at protein level.
Using Proteome Sciences’ proprietary TMT®MS2 workflow on a cohort of SK-OV-3 cell line samples derived from ICR’s pirin degradation probe (n=3) and DMSO control (n=3). A reference sample was created from pooling the other samples.
PAGE confirming a good sample quality. Thus, all samples were processed following TMT®MS2 workflow.
All LC-MS/MS runs passed internal quality assessments, based on total ion counts (TICs) and number of peptide spectral matches (PSMs), considering the MS method to be used for data acquisition. Labelling efficiency was over 98.5% across all fractions.
TMT®MS2 identified 8785 unique protein groups from 107318 unique peptide sequences. This is within the typical range of protein and peptide identifications from cell line samples.
Total Peptide Spectral Match: 316215
Total Unique Peptide Sequences: 107318
Total Unique Protein IDs: 8785
Median Standard Deviation and Inter Quartile Range (IQR) were measured for each sample. […]
Protein solutions of SK -OV-3 cell line samples derived from ICR’s pirin degradation probe (n=3) and DMSO control (n=3) were provided in 9M urea 20 mM HEPES, 1 mM activated sodium orthovanadate, 2.5 mM sodium pyrophosphate, 1 mM b-glycerol-phosphate at pH 8.0. […] The protein concentration of the supernatant was determined by Bradford protein assay and each sample visualized by Coomassie stained (Imperial Stain, Pierce) SDS-PAGE 4-20% gradient gels (Criterion, Biorad) using 10 µg of each sample. […]

[5] = Kinetic solubility determination by RP-HPLC; conditions: PBS, pH 7.4, aqueous buffer, kinetic from dmso stock
Experimental: Kinetic Solubility Determination
as §1, §2
The supernatant was removed and a small
as §3, §4, §5, §6, §7, §8, §9, §10, §11

pirin [6] = molecular target: T2, pirin; test: Pirin SPR (surface plasmon resonance) binding
Experimental: 9 All surface plasmon resonance (SPR) experiments were carried out on a Biacore T100
enhanced to T200 sensitivity (GE Life Scienc es, Amersham Place, UK). Amine coupling chemistry was used to immobilize the
pirin protein on a research grade CM5 sensor chip. The running buffer used in the immobilization step consisted of 1 x phosph ate
using a 1:1 mixture of 100 mM N-hydroxysuccinimide and 400 mM 1 -ethyl-3-(3-dimethylaminopropyl)-carbodiimide. Pirin was
No. T6205) added to provide protection for the active site lysines. The reaction was monitored in real time and stopped when a
target immobilization level of ~5000RU was obtained. Finally, the surfa ce was blocked via an injection of 1 M ethanolamine at
pH 8.5 for 7 min. The flow rate was maintained at 10 µL/min for all the above procedures. Flow cell one was left unmodified a nd
used as the reference surface.
Following protein immobilization, the run ning buffer was changed to 1 x phosphate buffered saline containing 0.05 % (v/v)
polypropylene V-bottomed plates (Greiner, Stonehouse, UK), which became the sample plates for the SPR. For each compound,
an eight-point dose response experiment was carried out, usi ng a concentration range suitable for the estimated pK D, in a buffer
mix compatible with the Biacore running buffer. The experiments were performed at a flow rate of 30 µL/min, a sample injectio n
time of 90 seconds and a dissociation time of 200 seconds. The CM5 surface was not regenerated between sample injections.
The response units for the equilibrium analysis were measured 4 seconds prior to the end of the injection time. pK D values were
determined from analysis of the background normalized binding curv e generated from the sensorgrams, under equilibrium
as the geometric mean±standard error of the mean (SEM) from three independ ent measurements. The ratio of experimental to

For `O=C1CCC(N2C(=O)c3cccc(OCCOCCOCCN4CCN(Cc5ccc6cc(C(=O)Nc7cc(NC(=O)c8ccc9c(c8)OCCO9)ccc7Cl)ccc6n5)CC4)c3C2=O)C(=O)N1` (centres unmarked) [PDP 16, N-(2-Chloro-5-(2,3-dihydrobenzo[b][1,4]dioxine-6-carboxamido)phenyl)-2-((4-(2-(2-(2-((2-(2,6-dioxopiperidin-3-yl)-1,3-dioxoisoindolin-4-yl)oxy)ethoxy)ethoxy)ethyl)piperazin-1-yl)methyl)quinoline-6-carboxamide], the Pirin degradation ([1]; 50 nM, 2 h exposure, Figure 3A) was “near complete pirin degradation”, the “Concentration-response shape with increasing concentration” value ([1]; 50 to 1500 nM, up to 24 h) was “clear hook effect” and the “Lowest concentration with pirin degradation activity” value ([1]; 2 h exposure, Figure 3B) was 0.5 nM. For the same molecule, the “First-order decay rate constant” value ([2]; pH 7.4 PBS, n=2, Figure S1) was 0.0038 min⁻¹, the “Half-life (aqueous stability)” value ([2]; pH 7.4 phosphate buffer) was about 3 h and the half-life at 100 µM ([2]; phosphate buffer (PBS), pH 7.4, Half-life (aqueous stability), pH 7.4 phosphate buffer) was 180 min. For the same molecule, the chromatographic logD [3] was 2.7, the “Proteins with statistically significant (p(adj) < 0.05) difference in expression” value (pirin [4]; 8547 quantifiable proteins) was “only pirin” and the “P.Value pirin (PIR, O00625), PDP vs Veh” value (pirin [4]; TMT) was 1.64E-08. The “Reduction of pirin protein expression vs vehicle” value (pirin [4]; TMT) was 2.3 fold, the “logFC pirin (PIR, O00625), PDP vs Veh” value (pirin [4]; TMT) was -1.208 and the solubility kinetic at 120 min [5] was 2 µM (≈ 1.89 µg/mL). The Kd (pirin [6]; Pirin SPR KD, equilibrium analysis, one site specific binding model, geometric mean n = 3) was 55 nM, the Kd (pirin [6]; Pirin SPR KD, representative single repeat, best-fit value, one site specific binding) was 56.3 nM and the Kd (pirin [6]; Pirin SPR pKD, mean of 3 values (unrounded), column statistics) was 54.5 nM. The “Increase in affinity for recombinant pirin compared to PDP 10” value (pirin [6]; SPR) was 4.2 fold and the “Measured Rmax/Theoretical Rmax” value (pirin [6]; SPR) was 0.39.
